“And” between values parts separate entries of the source, which are not always exact repeats. Equal values may be shown once.
Tests used:
[1] = molecular target: T1, AtPPO1 S305L (Arabidopsis thaliana, UniProt P55826, S305L); test: E. coli hemG growth inhibition by herbicide, AtPPO1 variant; format: cell-based; conditions: read-out: percentage growth inhibition
T1 construct: expressed in transfected cells; host or cells: E. coli BL21(DE3) hemG (pET24a, T7 promoter)
T1 sequence (P55826 35-537 S305L): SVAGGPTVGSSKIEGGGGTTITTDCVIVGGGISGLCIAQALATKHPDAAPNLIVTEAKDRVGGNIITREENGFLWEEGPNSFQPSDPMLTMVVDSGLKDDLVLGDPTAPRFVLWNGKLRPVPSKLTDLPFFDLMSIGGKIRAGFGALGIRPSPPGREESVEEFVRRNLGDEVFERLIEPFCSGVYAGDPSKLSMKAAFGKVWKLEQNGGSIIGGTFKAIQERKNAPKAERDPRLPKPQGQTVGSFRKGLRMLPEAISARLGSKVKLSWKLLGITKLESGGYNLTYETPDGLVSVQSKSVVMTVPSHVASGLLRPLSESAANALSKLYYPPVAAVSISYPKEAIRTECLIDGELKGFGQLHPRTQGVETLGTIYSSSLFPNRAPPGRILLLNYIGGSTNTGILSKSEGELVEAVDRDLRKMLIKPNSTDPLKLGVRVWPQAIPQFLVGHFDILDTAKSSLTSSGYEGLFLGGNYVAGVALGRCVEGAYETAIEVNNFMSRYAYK
How it was run: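 Variant plasmids were transformed into hemG-null BL21(DE3) and precultured 24 h with hematin. Washed cells were diluted 1:100 into Terrific broth containing 0.1 mM IPTG and herbicide (6.25 ppm 0 or E; 0.78 ppm B) or DMSO. After 24 h at 37° C, OD600 gave percent inhibition.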

[2] = test system: tobacco plants containing pBin TMV AtPPO1; test: herbicide damage to transgenic tobacco; format: in vivo; conditions: 120 g ai/ha, per transgenic event, 0 no visible damage, 100 complete death
Source text: Populations of transgenic tobacco comprising 20-30 transgenic events per plant transformation constructs are generated as described in Example 4. These lines were clonally propagated and 1 clone per event was sprayed with PPO herbicides to confirm the herbicide resistance.
(§1) Herbicidal damage is visually assessed across the population and a herbicide damage score given at 7 and 14 days. A score of 0 indicates no visible damage or stunting whereas a score of 100 indicates a complete death of the plant. 20 transgenic events (i.e. individual transgenic plants) from each GM tobacco line are transplanted to soil 1 week prior to spraying with PPO inhibiting compounds. WT tobacco is included as a control.
as §1, with “damage was” for “damage is”, “line were” for “line are”

SMILES | inhibition at 0.78 ppm [1] [%] | percentage of damage ([2]; 7 DAT) | percentage of damage ([2]; 14 DAT) | inhibition at 6.25 ppm [1] [%]
C#CCN1C(=O)C(F)(F)Oc2cc(F)c(-n3c(=O)n(C)c(=S)n(C)c3=O)cc21 [Herbicide B, trifludimoxazin] | 26 | 100% and 99% and 87% and 97% | 100% and 80% and 98% and 99% | –
CCOC(=O)C1(C)CC(c2cc(-n3c(=O)cc(C(F)(F)F)n(C)c3=O)c(F)cc2Cl)=NO1 (stereo not drawn) [Herbicide C, 3-(2-chloro-4-fluoro-5-(3-methyl-2,6-dioxo-4-trifluoromethyl-3,6-dihydropyrimidin-1(2H)-yl)phenyl)-5-methyl-4,5-dihydroisoxazole-5-carboxylic acid ethyl ester] | – | 100% and 95% and 94% and 97% | 100% and 90% and 95% and 97% and 99% | –
CCOC(=O)[C@]1(C)CC(c2cc(-n3c(=O)n(C)c(=S)n(C)c3=O)c(F)cc2Cl)=NO1 [Herbicide D, ethyl (5S)-3-[2-chloro-5-(3,5-dimethyl-2,6-dioxo-4-thioxo-1,3,5-triazinan-1-yl)-4-fluoro-phenyl]-5-methyl-4H-isoxazole-5-carboxylate] | – | 100% and 95% and 99% and 97% and 65% and 92% and 98% | 100% and 95% and 99% and 75% and 97% and 96% | 14
CC(C)N(C)S(=O)(=O)NC(=O)c1cc(-n2c(=O)cc(C(F)(F)F)n(C)c2=O)c(F)cc1Cl [Herbicide E, saflufenacil] | – | – | – | 39
